# According to PubChem BioAssay AID179 (DTP/NCI, 2004):
# Active and inactive are the calls of the source.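 The calls were made as follows: active = compounds giving half or more protection of infected cells from virus-caused growth loss, again on retest; inactive = the rest.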 Where a SMILES comes first, the peptide text is derived from it. [ ]: non-standard residue; d: D form. The star is where a group is joined. Nle = CCCC[CH](N)C(=O)O; Cbz = O=C(OCc1ccccc1)*; OBn = c1ccc(CO*)cc1
# System: CEM cells HIV-1 protection, formazan growth assay
# Assay: NCI AIDS Antiviral Assay
# Conditions: for IC50: measured here: growth of uninfected CEM cells
# Method in brief: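 CEM (human) cells, HIV-1 infected vs uninfected, 5-point dosing, formazan growth read-out. Retest threshold 50% protection.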
SMILES,EC50,IC50,outcome
COc1cc(-c2cc(-c3ccccc3)c3cc(Cl)ccc3n2)cc(OC)c1OC,> 200 µM,> 200 µM,
CC(=O)OC(C)C1C2=C(C(=O)CC1(C)O)C(=O)c1c(ccc(-c3ccc4c(c3O)C(=O)C3=C(C4=O)C(C(C)OC(C)=O)C(C)(O)CC3=O)c1O)C2=O (centres undefined),> 66.1 µM,0.263 µM,
Cc1ccc(C(=O)CCC2C(=O)CC(C)(C)CC2=O)cc1,> 91.2 µM,64.6 µM,
Cc1ccc(/C=C2\CCCC\C2=N\O)cc1,,,inactive
COC(=O)CC(C(C(=O)OC)C(=O)OC)N1C(=O)OC(c2ccccc2)C1c1ccccc1 (centres undefined),37.2 µM,74.1 µM,
O=S(Nc1ccccc1)c1ccc(Cl)c(Cl)c1 (centres undefined),> 200 µM,> 200 µM,
O=C(Nc1ccc(F)cc1)N(C1CCCCC1)C1CCCCC1,> 200 µM,81.3 µM,
CCOC(=O)C1CCC2c3[nH]c4ccccc4c3CCN2C1=O (centres undefined),> 115 µM,> 115 µM,
O=C(O)c1cc(-c2ccccc2O)nc2ccccc12,> 355 µM,191 µM,
O=P1(N(CCCl)CCCl)NCCCO1 (centres undefined),> 955 µM,302 µM,
CCOC(=O)NC(NC1=NCCS1)(C(=O)OCC)C(F)(F)F (centres undefined),> 200 µM,191 µM,
O=c1[nH]c(=O)n(C2CC(O)C(CO)O2)cc1NN=NCCCc1ccccc1 (centres undefined),> 200 µM,> 200 µM,
Cn1c(=O)n2n(c1=O)Cc1cccc3cccc(c13)C2,> 200 µM,> 200 µM,
CN(C)[C@@H]1C(=O)C(C(=O)NCN2CCN(C(=N)N=C(N)N)CC2)=C(O)[C@@]2(O)C(=O)C3=C(O)c4c(O)cccc4[C@@](C)(O)[C@H]3C[C@@H]12,> 37.2 µM,0.257 µM,
COc1cnc2cc3c4c(cccc4c2c1)NC3=O,> 100 µM,3.98 µM,
NC(=Nc1ccc(Br)cc1)/N=C(/N)Nc1cccc(S(=O)(=O)Nc2ncc(Cl)cn2)c1,> 200 µM,> 200 µM,
N#Cc1c(C#N)c(-c2cccc([N+](=O)[O-])c2)n(-c2ccccc2)c1N,> 200 µM,141 µM,
O=C1C2C3C=CC(CC3)C2C(=O)C2C3C=CC(C3)C12 (centres undefined),> 200 µM,129 µM,
O=C(CC(C(=O)c1cccs1)c1ccsc1)c1ccc(Cl)s1 (centres undefined),> 200 µM,97.7 µM,
CC(C)CCC[C@@H](C)C1CCC2[C@@H]3CC=C4C[C@@H](OP(=O)(O)OP(=O)(O)O)CC[C@]4(C)C3CC[C@@]21C (some centres undefined),> 6.17 µM,> 6.17 µM,

SMILES,EC50,IC50,outcome
O=c1[nH]c(=O)n(C2CC(O)C(COP(=O)(OCc3ccc([N+](=O)[O-])o3)N3CCCCC3)O2)cc1F (centres undefined),> 200 µM,0.17 µM,
CCn1c(SCC(=O)NNC(=S)Nc2ccc([N+](=O)[O-])cc2)nc2ccccc2c1=O,> 200 µM,83.2 µM,
O=NN1C(c2ccccc2)CNC(=O)CC1c1ccccc1 (centres undefined),,,inactive
COc1ccc(-c2oc3ccccc3c(=O)c2O)cc1OC,> 200 µM,138 µM,
CC(=O)Oc1cc(C(F)(F)F)ccc1C(=O)OC1(C)OC(=O)c2ccc(C(F)(F)F)cc2O1 (centres undefined),> 200 µM,41.7 µM,
NC(N)=NNC(O)(C(=O)O)C(=O)O,> 200 µM,> 200 µM,
Cn1c(N)c(N=Nc2ccc(S(=O)(=O)Nc3nccs3)cc2)c(=O)n(C)c1=O,,,inactive
OC[P+](CO)(CO)C12CC3CC(CC(C3)C1)C2,> 200 µM,41.7 µM,
Nc1[nH]c(=O)nc2snnc12,> 200 µM,4.79 µM,
N#CC1=C(O)NC(O)=C(C#N)C1c1ccc(Cl)cc1Cl,> 17 µM,> 17 µM,
O=C(O)c1cc(I)cc(I)c1O.O=[N+]([O-])C1CCC(O)C2[N-]CCCC21.[Cu+] (centres undefined),> 200 µM,5.62 µM,
O=[N+]([O-])c1ccc(S(=O)(=O)NCCSSCCNS(=O)(=O)c2ccc([N+](=O)[O-])cc2)cc1,> 200 µM,10.5 µM,
C#CC(OC(=O)NC1CCCCC1)(c1ccccc1)c1ccccc1,> 200 µM,20.4 µM,
O=C1CC2CCC(C1)N2CC1COc2ccccc2O1 (centres undefined),> 200 µM,> 200 µM,
CCN(CC)CC(=O)NC1c2ccccc2Sc2c(C)cccc21 (centres undefined),> 148 µM,60.3 µM,
CCn1c(=O)c(N=O)c(N)n(CC(C)O)c1=O (centres undefined),> 200 µM,> 200 µM,
O=c1c(-c2ccccc2)coc2cc(O)ccc12,> 200 µM,52.5 µM,
CCCCC(NC(=O)C1CCCN1C(=O)OCc1ccccc1)C(=O)OCc1ccccc1 (stereo not drawn) (Cbz-Pro-[Nle]-OBn; configuration not given here),> 41.7 µM,> 41.7 µM,
COC(=O)[C@]1(C)CCC[C@]2(C)c3cc(Br)c(C(C)C)cc3CC[C@H]12,> 100 µM,> 100 µM,
Nc1cc(=O)[nH]c(=S)n1-c1ccc(Cl)cc1,> 200 µM,> 200 µM,

SMILES,EC50,IC50,outcome
CC(CC1c2ccccc2CCc2ccccc21)CN(C)C (centres undefined),> 200 µM,33.1 µM,
CCC1(C)NN=c2s/c(=C/c3ccc(OC)cc3)c(=O)n2N1 (centres undefined),,,inactive
CN(C)c1ccc(/C=C(\NC(=O)c2ccccc2)C2=NC(CC(=O)O)C(=O)O2)cc1 (centres undefined),> 50.1 µM,> 50.1 µM,
O=C1c2ccccc2C(=O)N1N1C(=O)C2C3CCC(O3)C2C1=O (centres undefined),> 200 µM,95.5 µM,
Cc1ccc2c(c1)nc(-c1ccccn1)n2CCc1ccccn1,> 347 µM,83.2 µM,
Nn1c(N=Nc2c(O)[nH]c3c(Cl)cc(Cl)cc23)n[nH]c1=S,> 14.1 µM,> 14.1 µM,
C=CC1(CC/C(=C\[N+](=O)[O-])c2ccc(OC)c(OC)c2)OCC(C)(C)CO1,> 200 µM,17.4 µM,
COc1ccc(S(=O)(=O)N(C)c2ccccc2)cc1,> 200 µM,7.76 µM,
NC(CCCCP(=O)(O)O)C(=O)O (centres undefined),> 200 µM,> 200 µM,
O=[N+]([O-])c1ccccc1S(=O)(=O)c1cccc2c1NCCC2,3.47 µM,38 µM,
CCC[CH2][Sn]([CH2]CCC)([O]C(=O)C(N)CSC)[O]C(=O)C(N)CSC (centres undefined),> 18.6 µM,0.129 µM,
CCOC(=O)C1C(c2ccc(Cl)cc2Cl)NC(c2ccc(C)cc2)C(C(=O)OC)S1(=O)=O (centres undefined),> 14.5 µM,> 14.5 µM,
CCc1c2c(cc3c1CC1(C3)Cc3cc4c(c(C(=O)OC)c3C1)CCCC4)CCCC2 (centres undefined),> 200 µM,166 µM,
CCOP(=O)(OCC)/C(C#N)=C/c1cnc[nH]1,> 200 µM,> 200 µM,
COc1ccc(-n2sc3ncc([N+](=O)[O-])cc3c2=O)cc1,9.33 µM,> 200 µM,
OCCCN1CCCC12CCCCC2,> 200 µM,> 200 µM,
COc1ccc(N2C(=O)CC(=O)N(C(=O)CCCCCCCCC(=O)N3C(=O)CC(=O)N(c4ccc(OC)cc4)C3=S)C2=S)cc1,> 200 µM,102 µM,
CC1(COc2ccccc2OCC2(C)CO2)CO1 (centres undefined),> 1000 µM,16.6 µM,
OC1CSCCCSCCSCCCSC1,> 17.4 µM,> 17.4 µM,
